Inhibition data for 27 compounds are collected here from patent US8022225B2, “Triazole derivative” (Taisho Pharmaceutical Co., Ltd, priority 2004, dated 2011).

Test [1] deals with T1, human Edg-1(S1P1) (Homo sapiens, UniProt P21453).
T1 construct: expressed in transfected cells; host or cells: HEK-293
Kind of test: Cell system binding test: inhibition of [3H]-S1P binding to Edg-1(S1P1) gene transferred HEK-293 cells. As to conditions: 10 μM compound, [3H]-S1P 10 nM, read-out: Cell system binding test % inhibition (10 μM).

The target of test [2] is T1, human Edg-1(S1P1). Put plainly: Membrane system binding test: inhibition of [33P]-S1P binding to the membrane fraction of Edg-1(S1P1) gene transferred HEK-293 cells. As to conditions: 10 μM compound; [33P]-S1P 0.1 nM; membrane fraction of Edg-1(S1P1) gene transferred HEK-293 cells; read-out: Membrane system binding test % inhibition (10 μM). In outline:
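Membranes from HEK-293 cells transfected with Edg-1(S1P1) incubated 1 h at 30 °C with 0.1 nM [^33P]-S1P and compound at 10^−5 M (0.1% DMSO), pH 7.4 buffer with fatty acid-free BSA. Filter-bound radioactivity counted; inhibition rate calculated against no-compound binding, with untransfected-cell background subtracted.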

T1 sequence (P21453 whole entry): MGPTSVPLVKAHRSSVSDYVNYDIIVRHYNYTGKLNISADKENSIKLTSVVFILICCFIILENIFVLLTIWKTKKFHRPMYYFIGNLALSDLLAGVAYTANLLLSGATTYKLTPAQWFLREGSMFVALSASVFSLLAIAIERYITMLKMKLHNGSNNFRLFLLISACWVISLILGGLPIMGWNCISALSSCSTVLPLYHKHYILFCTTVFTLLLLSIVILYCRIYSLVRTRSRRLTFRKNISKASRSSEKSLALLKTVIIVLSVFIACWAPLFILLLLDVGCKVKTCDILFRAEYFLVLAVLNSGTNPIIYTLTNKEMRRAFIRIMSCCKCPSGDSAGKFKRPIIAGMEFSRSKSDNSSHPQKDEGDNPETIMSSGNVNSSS

The term inhibition denotes the relative decrease from the control value, in per cent. `CCn1c(OC)nnc1[C@@H](C)NS(=O)(=O)c1ccc(C)c(F)c1` [Compound 315]: the inhibition at 10 µM was found to be 100% at human Edg-1(S1P1) [1] and 85% at human Edg-1(S1P1) [2].
The matching figures for `CCn1c(OC)nnc1[C@@H](C)NS(=O)(=O)c1ccc(Br)c(F)c1` [Compound 317]: 97.2% and 95.8%.
For `CCn1c(OC)nnc1[C@@H](C)NS(=O)(=O)c1ccc(C)c(C)c1` [Compound 319], in that order: 93.4% and 89.9%.
For `CCn1c(OC)nnc1[C@@H](C)NS(=O)(=O)c1cc(C)ccc1F` [Compound 320], in that order: 93.5% and 47.9%.
`CCn1c(OC)nnc1[C@@H](C)NS(=O)(=O)c1ccc(F)c(C(F)(F)F)c1` [Compound 321]: the inhibition at 10 µM on human Edg-1(S1P1) [1] stood at 100%; on human Edg-1(S1P1) [2], 99.7%.
For `CCn1c(OC)nnc1[C@@H](C)NS(=O)(=O)c1cccc(Cl)c1F` [Compound 322], in that order: 95.9% and 43.5%.
The matching figures for `CCn1c(OC)nnc1[C@@H](C)NS(=O)(=O)c1ccc2c(c1)CCO2` [Compound 337]: 102% and 61.3%.
With `CCn1c(OC)nnc1[C@@H](C)NS(=O)(=O)c1ccc2c(c1)OCCO2` [Compound 338], the inhibition at 10 µM worked out at 103% on human Edg-1(S1P1) [1] and 69.4% at human Edg-1(S1P1) [2].
The matching figures for `CCn1c(OC)nnc1[C@@H](C)NS(=O)(=O)c1ccc2nsnc2c1` [Compound 341]: 99.4% and 99.4%.
Consider `CCn1c(OC)nnc1[C@@H](C)NS(=O)(=O)c1ccc2c(c1)OCCCO2` [Compound 343], for which the inhibition at 10 µM on human Edg-1(S1P1) [1] came out at 98.9%; at human Edg-1(S1P1) [2] it was 41.4%.
As for `CCn1c(OC)nnc1[C@@H](C)NS(=O)(=O)c1ccc2c(c1)OCCN2C` [Compound 344], the figures for the inhibition at 10 µM at human Edg-1(S1P1) [1] and at human Edg-1(S1P1) [2] were 102% and 65.8%, respectively.
With `CCn1c(OC)nnc1[C@@H](C)NS(=O)(=O)c1cccc(C(C)=O)c1` [Compound 355], the inhibition at 10 µM was determined as 101% on human Edg-1(S1P1) [1] and 62.8% at human Edg-1(S1P1) [2].
For `CCn1c(OC)nnc1[C@@H](C)NS(=O)(=O)c1cccc2cnccc12` [Compound 365], the inhibition at 10 µM on human Edg-1(S1P1) [1] was found to be 81.7%; at human Edg-1(S1P1) [2], 41.8%.
For `CCn1c(OC)nnc1[C@@H](C)NS(=O)(=O)c1cc(C)sc1C` [Compound 367], in that order: 97% and 41.8%.
`CCn1c(OC)nnc1[C@@H](C)NS(=O)(=O)c1csc2ccccc12` [Compound 368]: the inhibition at 10 µM at human Edg-1(S1P1) [1] was determined as 102%; at human Edg-1(S1P1) [2] it was 85.1%.
Turning to `CCn1c(OC)nnc1[C@@H](C)NS(=O)(=O)c1cc2ccccc2s1` [Compound 369], the inhibition at 10 µM on human Edg-1(S1P1) [1] was found to be 105%; at human Edg-1(S1P1) [2], 102%.
With `CCn1c(OC)nnc1[C@@H](C)NS(=O)(=O)c1cc(Br)cc(C(F)(F)F)c1` [Compound 371], the figures for the inhibition at 10 µM at human Edg-1(S1P1) [1] and at human Edg-1(S1P1) [2] were 102% and 61.2%, respectively.
Turning to `CCn1c(OC)nnc1[C@@H](C)NS(=O)(=O)c1ccc(Br)c(C(F)(F)F)c1` [Compound 372], the inhibition at 10 µM at human Edg-1(S1P1) [1] amounted to 105%; at human Edg-1(S1P1) [2], 94.3%.
Consider `CCn1c(OCCOC)nnc1[C@@H](C)NS(=O)(=O)c1ccc(Cl)cc1` [Compound 375], for which the inhibition at 10 µM at human Edg-1(S1P1) [1] came out at 92.6%; at human Edg-1(S1P1) [2], 54.3%.
As to `CCn1c(OCC(C)(C)C)nnc1[C@@H](C)NS(=O)(=O)c1ccc(Cl)cc1` [Compound 377], the inhibition at 10 µM was found to be 97.9% on human Edg-1(S1P1) [1] and 90.3% on human Edg-1(S1P1) [2].
For `CCn1c(OCC2CCCCC2)nnc1[C@@H](C)NS(=O)(=O)c1ccc(Cl)cc1` [Compound 378], the inhibition at 10 µM was 103% on human Edg-1(S1P1) [1] and 87.2% at human Edg-1(S1P1) [2].
As to `CCn1c(OC(C)C)nnc1[C@@H](C)NS(=O)(=O)c1ccc(Cl)cc1` [Compound 379], the inhibition at 10 µM was determined as 99.7% at human Edg-1(S1P1) [1] and 93.4% at human Edg-1(S1P1) [2].
In the case of `CCn1c(OCCCCCO)nnc1[C@@H](C)NS(=O)(=O)c1ccc(Cl)cc1` [Compound 380], the inhibition at 10 µM on human Edg-1(S1P1) [1] was 105%; on human Edg-1(S1P1) [2] it was 85.2%.
On to `CCn1c(OCc2ccccc2)nnc1[C@@H](C)NS(=O)(=O)c1ccc(Cl)cc1` [Compound 381], for which the inhibition at 10 µM stood at 97.1% on human Edg-1(S1P1) [1] and 94.9% on human Edg-1(S1P1) [2].
Consider `CCn1c(OC2CCCC2)nnc1[C@@H](C)NS(=O)(=O)c1ccc(Cl)cc1` [Compound 382], for which the inhibition at 10 µM on human Edg-1(S1P1) [1] turned out to be 97.8%; at human Edg-1(S1P1) [2], 99.6%.
For `CCN(CC)C(=O)COc1nnc([C@@H](C)NS(=O)(=O)c2ccc(Cl)cc2)n1CC` [Compound 383], in that order: 82.2% and 66%.
For `C=CCCCOc1nnc([C@@H](C)NS(=O)(=O)c2ccc(Cl)cc2)n1CC` [Compound 384], the inhibition at 10 µM at human Edg-1(S1P1) [1] came to 104%; at human Edg-1(S1P1) [2], 93.5%.
